Values of other authors in patent US7642353B2, “Process of making crystalline aripiprazole” (Synthon BV, priority 2004, dated 2010).

Row | SMILES | water uptake (in 24 hours) | hygroscopicity (solid form, as taught by WO 03/26659)
1 | O=C1CCc2ccc(OCCCCN3CCN(c4cccc(Cl)c4Cl)CC3)cc2N1 [Anhydrous Form B, 7-[4-[4-(2,3-dichlorophenyl)-1-piperazinyl]butoxy]-3,4-dihydrocarbostyril] | less than 0.4% | 
2 | O=C1CCc2ccc(OCCCCN3CCN(c4cccc(Cl)c4Cl)CC3)cc2N1 [Type I aripiprazole, 7-[4-[4-(2,3-dichlorophenyl)-1-piperazinyl]butoxy]-3,4-dihydrocarbostyril] |  | significantly hygroscopic
